Read-outs that look alike come from different tables or passages of the source.
How the values were obtained:
[1] = target: GDP-bound protein (aa 1-169), containing both G12C and C118A amino acid substitutions (Homo sapiens, UniProt P01116, C118A/G12C); experiment: Coupled Nucleotide Exchange Assay (SOS-mediated nucleotide exchange, AlphaScreen); type: biochemical; conditions: 2 hours compound pre-incubation
Summary of the method: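 AlphaScreen signal after SOS (aa 564-1049)/GTP-driven exchange (1 h) on GDP-loaded His-[…] G12C/C118A (aa 1-169), following a 2 h compound pre-incubation in HEPES pH 7.4 buffer with 10 mM MgCl2 and 0.01% Triton X-100. IC50s fitted by 4-parameter logistic model.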

[2] = tested on: Phosphorylation of ERK½ in A549 cells; experiment: Phospho-ERK½ MSD Assay in A549 cells; type: cell-based; conditions: 4 hours compound treatment, 10 ng/mL EGF for 10 min, read-out: p-ERK IC50 (A549)
Procedure: (§1) Phospho-ERK½ MSD Assay: MIA PaCa-2 (ATCC® CRL-1420™) and A549 (ATCC® CCL-185™) cells were cultured in RPMI 1640 Medium (ThermoFisher Scientific 11875093) containing 10% fetal bovine serum (ThermoFisher Scientific 16000044) and 1× penicillin-streptomycin-glutamine (ThermoFisher Scientific 10378016). Sixteen hours prior to compound treatment, MIA PaCa-2 or A549 cells were seeded in 96-well cell culture plates at a density of 25,000 cells/well and incubated at 37° C., 5% CO2. A compound dose-response titration was diluted in growth media, added to appropriate wells of a cell culture plate, and then incubated at 37° C., 5% CO2 for 4 hours. Following compound treatment, cells were stimulated with 10 ng/mL EGF (Roche 11376454001) for 10 min, washed with ice-cold Dulbecco's phosphate-buffered saline, no Ca^2+ or Mg^2+ (ThermoFisher Scientific 14190144), and then lysed in RIPA buffer (50 mM Tris-HCl pH 7.5, 1% Igepal, 0.5% sodium deoxycholate, 150 mM NaCl, and 0.5% sodium dodecyl sulfate) containing protease inhibitors (Roche 4693132001) and phosphatase inhibitors (Roche 4906837001). Cell lysates were stored frozen at −80° C. overnight. Phosphorylation of ERK½ in compound-treated lysates was assayed using Phospho-ERK½ Whole Cell Lysate kits (Meso Scale Discovery K151DWD) according to the manufacturer's protocol. Assay plates were read on a Meso Scale Discovery Sector Imager 6000, and data were analyzed using a 4-parameter logistic model to calculate IC50 values.

[3] = tested on: Phosphorylation of ERK½ in MIA PaCa-2 cells; experiment: Phospho-ERK½ MSD Assay in MIA PaCa-2 cells; type: cell-based; conditions: 4 hours compound treatment, 10 ng/mL EGF for 10 min, read-out: p-ERK IC50 (MIA PaCa-2)
Procedure: as §1

[4] = Homo sapiens, MIA PaCa-2, MIA PaCa-2 cells

GDP-bound protein (aa 1-169), containing both G12C and C118A amino acid substitutions, sequence (P01116 1-169 isoform P01116-2 G12C/C118A): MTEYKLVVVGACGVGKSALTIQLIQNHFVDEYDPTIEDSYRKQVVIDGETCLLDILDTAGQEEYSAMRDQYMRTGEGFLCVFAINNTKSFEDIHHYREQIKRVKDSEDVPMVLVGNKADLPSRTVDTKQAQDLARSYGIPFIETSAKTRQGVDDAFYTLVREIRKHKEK

Coupled exchange IC50 [1] | IC50 ([2]; A549 cells) | IC50 ([3]; MIA PaCa-2 cells) | IC50 ([2]; A549 cells, listed as 8-6-7) | IC50 ([2]; Homo sapiens, A549, A549 cells) | IC50 [3, 4] | SMILES
0.066 µM | > 33.3 µM | 0.01 µM |  |  |  | C=CC(=O)N1CCN(c2nc(=O)n(-c3ccccc3C(C)C)c3nc(-c4c(O)cccc4F)c(Cl)cc23)[C@@H](C)C1 (single isomer, unassigned) [Example 8-6-1]
0.185 µM |  | 0.128 µM | > 100 µM |  |  | C=CC(=O)N1CCN(c2nc(=O)n(-c3ccccc3C(C)C)c3nc(-c4c(O)cccc4F)c(Cl)cc23)[C@@H](C)C1 (single isomer, unassigned) [Example 8-6-2]
0.231 µM |  | 0.247 µM |  | 42.9 µM |  | C=CC(=O)N1CCN(c2nc(=O)n(-c3ccccc3C(C)C)c3cc(-c4c(C)ccc5[nH]ncc45)c(Cl)cc23)CC1 (single isomer, unassigned) [Example 11-1-1, 6-chloro-7-(5-methyl-1H-indazol-4-yl)-1-(2-(2-propanyl)phenyl)-4-(4-(2-propenoyl)-1-piperazinyl)-2(1H)-quinazolinone]
0.151 µM | 21.7 µM | 0.016 µM |  |  |  | C=CC(=O)N1CCN(c2nc(=O)n(-c3ccccc3C(C)C)c3cc(-c4c(C)ccc5[nH]ncc45)c(Cl)cc23)CC1 (single isomer, unassigned) [Example 11-1-2, 6-chloro-7-(5-methyl-1H-indazol-4-yl)-1-(2-(2-propanyl)phenyl)-4-(4-(2-propenoyl)-1-piperazinyl)-2(1H)-quinazolinone]
0.219 µM | 10 µM | 0.054 µM |  |  |  | C=CC(=O)N1CCN(c2nc(=O)n(-c3ccccc3C(C)C)c3cc(-c4c(C)ccc5[nH]ncc45)c(Cl)cc23)[C@@H](C)C1 (single isomer, unassigned) [Example 11-2-1]
0.256 µM | 26.4 µM | 0.006 µM |  |  |  | C=CC(=O)N1CCN(c2nc(=O)n(-c3ccccc3C(C)C)c3cc(-c4c(C)ccc5[nH]ncc45)c(Cl)cc23)[C@@H](C)C1 (single isomer, unassigned) [Example 11-2-2]
0.209 µM |  |  |  | > 100 µM | 1.86 µM | C=CC(=O)N1CCN(c2snc3c(F)c(-c4cc(O)cc5ccccc45)c(Cl)cc23)C(CO)C1 (stereo in doubt) [Example 1-7, 1-((3R)-4-(5-chloro-7-fluoro-6-(3-hydroxy-1-naphthalenyl)-2,1-benzothiazol-3-yl)-3-(hydroxymethyl)-1-piperazinyl)-2-propen-1-one]
0.695 µM |  |  |  | > 100 µM | 8.2 µM | C=CC(=O)N1CCN(c2snc3c(F)c(-c4cc(O)cc5ccccc45)c(Cl)cc23)C(CCO)C1 (stereo in doubt) [Example 1-11, 1-((3S)-4-(5-chloro-7-fluoro-6-(3-hydroxy-1-naphthalenyl)-2,1-benzothiazol-3-yl)-3-(2-hydroxyethyl)-1-piperazinyl)-2-propen-1-one]
0.355 µM |  |  |  | > 33.3 µM | 2.55 µM | C=CC(=O)N1CCN(c2snc3c(F)c(-c4cc(O)ccc4Br)c(Cl)cc23)CC1 [Example 1-1, 1-(4-(6-(2-bromo-5-hydroxyphenyl)-5-chloro-7-fluorobenzo[c]isothiazol-3-yl)piperazin-1-yl)prop-2-en-1-one]
2.38 µM |  |  |  | > 100 µM | 6.08 µM | C=CC(=O)N1CCN(c2snc3c(F)c(-c4c[nH]c5ccccc45)c(Cl)cc23)CC1 [Example 1-2, 1-(4-(5-chloro-7-fluoro-6-(1H-indol-3-yl)-2,1-benzothiazol-3-yl)-1-piperazinyl)-2-propen-1-one]
>10 µM |  |  |  | > 100 µM | > 100 µM | C=CC(=O)N1CCN(c2snc3cc(-c4cc(OC)cc5ccccc45)c(Cl)cc23)CC1 [Example 1-4, 1-(4-(5-chloro-6-(3-methoxy-1-naphthalenyl)-2,1-benzothiazol-3-yl)-1-piperazinyl)-2-propen-1-one]
2.88 µM |  |  |  | > 100 µM | 36.2 µM | C=CC(=O)N1CCN(c2snc3cc(-c4c(O)cccc4F)c(Cl)cc23)CC1 [Example 1-6, 1-(4-(5-chloro-6-(2-fluoro-6-hydroxyphenyl)-2,1-benzothiazol-3-yl)-1-piperazinyl)-2-propen-1-one]
0.381 µM |  |  |  | 11.1 µM | 1.09 µM | C=CC(=O)N1CCN(c2snc3c(F)c(-c4c(C)ccc5[nH]ncc45)c(Cl)cc23)[C@@H](C)C1 [Example 1-10, 1-((3S)-4-(5-chloro-7-fluoro-6-(5-methyl-1H-indazol-4-yl)-2,1-benzothiazol-3-yl)-3-methyl-1-piperazinyl)-2-propen-1-one]
1.78 µM |  |  |  | > 100 µM | 5.03 µM | C=CC(=O)N1CCN(c2snc3c(F)c(-c4c(O)ccc5ccccc45)c(Cl)cc23)CC1 [Example 1-14, 1-(4-(5-chloro-7-fluoro-6-(2-hydroxy-1-naphthalenyl)-2,1-benzothiazol-3-yl)-1-piperazinyl)-2-propen-1-one]
0.562 µM |  |  |  | > 100 µM | 4.7 µM | C=CC(=O)N1CCN(c2snc3c(F)c(-c4cc(O)cc5ccccc45)c(Cl)cc23)[C@@H](CO)C1 [Example 1-15]
0.297 µM |  | 1.33 µM |  | > 100 µM |  | C=CC(=O)N1CCN(c2snc3c(F)c(-c4cc(O)cc5ccccc45)c(Cl)cc23)[C@@H](C)C1 [Example 1-19, 1-((3S)-4-(5-chloro-7-fluoro-6-(3-hydroxy-1-naphthalenyl)-2,1-benzothiazol-3-yl)-3-methyl-1-piperazinyl)-2-propen-1-one]
0.683 µM |  |  |  | > 100 µM | 4.99 µM | C=CC(=O)N1CC(Nc2snc3c(F)c(-c4cc(O)cc5ccccc45)c(Cl)cc23)C1 [Example 1-20, 1-(3-((5-chloro-7-fluoro-6-(3-hydroxy-1-naphthalenyl)-2,1-benzothiazol-3-yl)amino)-1-azetidinyl)-2-propen-1-one]
1.30 µM |  |  |  | > 100 µM | 4.89 µM | C=CC(=O)N1CCN(c2snc3c(F)c(-c4cc(O)cc5ccccc45)c(Cl)cc23)[C@H](C)C1 [Example 1-21, 1-((3R)-4-(5-chloro-7-fluoro-6-(3-hydroxy-1-naphthalenyl)-2,1-benzothiazol-3-yl)-3-methyl-1-piperazinyl)-2-propen-1-one]
0.341 µM |  |  |  | 3.7 µM | 1.89 µM | C=CC(=O)N1CCN(c2snc3nc(-c4cc(O)cc5ccccc45)c(Cl)cc23)CC1 [Example 2-1, 1-(4-(5-chloro-6-(3-hydroxy-1-naphthalenyl)[1,2]thiazolo[3,4-b]pyridin-3-yl)-1-piperazinyl)-2-propen-1-one]
0.266 µM |  | 3.23 µM |  | > 100 µM |  | C=CC(=O)N1CCN(c2snc3c(F)c(-c4cc(O)cc5ccccc45)c(Cl)cc23)CC1 [Example 3-1, 1-(4-(5-Chloro-7-fluoro-6-(3-hydroxynaphthalen-1-yl)benzo[c]isothiazol-3-yl)piperazin-1-yl)prop-2-en-1-one]
0.693 µM |  |  |  | 3.7 µM | 5.26 µM | C=CC(=O)N1CCN(c2snc3c(F)c(-c4c(C)ccc5[nH]ncc45)c(Cl)cc23)CC1 [Example 3-5, 1-(4-(5-chloro-7-fluoro-6-(5-methyl-1H-indazol-4-yl)-2,1-benzothiazol-3-yl)-1-piperazinyl)-2-propen-1-one]
1.05 µM |  |  |  | > 100 µM | 11.8 µM | C=CC(=O)N1CCN(c2snc3c(F)c(-c4c(O)cccc4F)c(Cl)cc23)CC1 [Example 3-6, 1-(4-(5-chloro-7-fluoro-6-(2-fluoro-6-hydroxyphenyl)-2,1-benzothiazol-3-yl)-1-piperazinyl)-2-propen-1-one]

SMILES | Coupled exchange IC50 [1] | IC50 ([2]; A549 cells) | IC50 ([3]; MIA PaCa-2 cells) | IC50 ([2]; A549 cells, listed as 8-6-7) | IC50 ([2]; Homo sapiens, A549, A549 cells) | IC50 [3, 4]
C=CC(=O)N1CCN(c2nc(=O)n(-c3ccccc3C(C)C)c3cc(-c4c(O)cccc4F)c(Cl)cc23)[C@@H](C)C1 (single isomer, unassigned) [Example 8-3-2] | 0.340 µM | > 100 µM | 0.028 µM |  |  | 
